# In patent US5495032A, “Process for producing 7-(substituted)-8-(substituted-9-[(substituted glycyl)amido]-6-demethyl-6-deoxytetracyclines” (priority 1994, dated 1996):
# Structures can show the parent of a compound that is named as a salt. Where two headings read alike, the source gives them in different places.
# Assays:
# Type in all cases: cell-based
# E. coli UBMS 88-1 Tet B = test: microbe, parasite or virus in culture; conditions: 18 hours at 35° C.
# [1] = tested on: E. coli MC 4100 Tet sens.; test: MIC, agar dilution method; conditions: Escherichia coli, 18 hours at 35° C., read-out: MIC
# E. coli PRP1 Tet A = test: microbe, parasite or virus in culture; conditions: 18 hours at 35° C.
# [2] = tested on: E. coli MC 4100 TNIOC Tet B; test: microbe, parasite or virus in culture; conditions: 18 hours at 35° C.
# E. coli J3272 Tet C = test: microbe, parasite or virus in culture
# E. coli UBMS 89-1 Tet M = test: microbe, parasite or virus in culture; conditions: 18 hours at 35° C.
# [3] = tested on: E. coli UBMS 89-2 Tet sens; test: MIC, agar dilution method; conditions: 18 hours at 35° C.
# E. coli J2175 = test: MIC, agar dilution method; conditions: 18 hours at 35° C.
# E. coli BAJ9003 IMP MUT = test: microbe, parasite or virus in culture; conditions: 18 hours at 35° C.
# E. coli UBMS 90-4 Tet M = test: microbe, parasite or virus in culture; conditions: 18 hours at 35° C.
# E. coli UBMS 90-5 sens = test: MIC, agar dilution method; conditions: 18 hours at 35° C.
# E. coli #311 (MP) = test: MIC, agar dilution method; conditions: 18 hours at 35° C.
# E. coli ATCC 25922 = test: MIC, agar dilution method
# E. coli J3272 Tet D = test: microbe, parasite or virus in culture
# S. mariescens FPOR 8733 = test: MIC, agar dilution method; conditions: 18 hours at 35° C.
# [4] = tested on: X. maltophilia NEMC 87210; test: MIC, agar dilution method; conditions: Stenotrophomonas maltophilia
# [5] = tested on: Ps. acruginosa ATCC 27853; test: MIC, agar dilution method; conditions: Ps. acruginosa ATCC 27853; 18 hours at 35° C.; read-out: MIC
# S. aureus NEMC 8769 = test: MIC, agar dilution method; conditions: Staphylococcus aureus, NEMC8769, 18 h
# S. aureus UBMS 88-4 = test: MIC, agar dilution method
# [6] = tested on: S. aureus UBMS 88-5 Tet M; test: microbe, parasite or virus in culture
# [7] = tested on: S. aureus UBMS 88-7 Tet K; test: microbe, parasite or virus in culture; conditions: 18 hours at 35° C.
# [8] = tested on: S. aureus UBMS 90-1 Tet M; test: microbe, parasite or virus in culture; conditions: 18 hours at 35° C.
# S. aureus UBMS 90-3 = test: MIC, agar dilution method
# [9] = tested on: S. aureus UBMS 90-2 Tet M; test: microbe, parasite or virus in culture; conditions: 18 hours at 35° C.
# S. aureus IVES 2943 = test: MIC, agar dilution method; conditions: S. aureus IVES 2943, 18 hours at 35° C.
# S. aureus ROSE (MP) = test: MIC, agar dilution method; conditions: 18 hours at 35° C.
# S. aureus SMITH (MP) = test: MIC, agar dilution method; conditions: 18 hours at 35° C.
# S. aureus IVES 1 983 = test: MIC, agar dilution method; conditions: S. aureus IVES 1 983, 18 hours at 35° C.
# S. aureus ATCC 29213 = test: MIC, agar dilution method; conditions: 18 hours at 35° C.
# [10] = tested on: S. hemolyticus AVHAH 88-3; test: MIC, agar dilution method; conditions: 18 hours at 35° C.
# Enterococcus 12201 = test: MIC, agar dilution method; conditions: 18 hours at 35° C.
# E. faecalis ATCC 29212 = test: MIC, agar dilution method; conditions: Enterococcus faecalis
# [11] = Escherichia coli, read-out: MIC
compound,measurement,setting,value
"CN(C)[C@@H]1C(O)=C(C(N)=O)C(=O)[C@@]2(O)C(O)=C3C(=O)c4c(cc(Cl)c(NC(=O)CN5CCCC5)c4O)CC3CC12 (stereo partly drawn) [E, [7S-(7α,10aα)]-N-[9-(Aminocarbonyl)-3-chloro-7-(dimethylamino)-5,5a,6,6a,7, 10,10a,12-octahydro-1,2,10a,11-tetrahydroxy-10,12-dioxo-2-naphthacenyl]-1-pyrrolidineacetamide dihydrochloride]",MIC,"E. coli UBMS 88-1 Tet B; Escherichia coli, UBMS881TETB, 18 h",1 µg/mL
same,MIC,[1],0.25 µg/mL
same,MIC,"E. coli PRP1 Tet A; Escherichia coli, PRP1TETA, 18 h",2 µg/mL
same,MIC,"[2]; Escherichia coli, 18 h",1 µg/mL
same,MIC,"E. coli J3272 Tet C; Escherichia coli, J3272TETC, 18 h",1 µg/mL
same,MIC,"E. coli UBMS 89-1 Tet M; Escherichia coli, UBMS891TETM, 18 h",0.25 µg/mL
same,MIC,"[3]; Escherichia coli, UBMS892TETSENS, 18 h, read-out: MIC",1 µg/mL
same,MIC,E. coli J2175; [11],1 µg/mL
same,MIC,"E. coli BAJ9003 IMP MUT; Escherichia coli, BAJ9003IMPMUT, 18 h",0.12 µg/mL
same,MIC,"E. coli UBMS 90-4 Tet M; Escherichia coli, UBMS904TETM, 18 h",1 µg/mL
same,MIC,"E. coli UBMS 90-5 sens; Escherichia coli, UBMS905SENS, read-out: MIC",1 µg/mL
same,MIC,E. coli #311 (MP); [11],0.25 µg/mL
same,MIC,"E. coli ATCC 25922; Escherichia coli, ATCC25922, 18 hours at 35° C., read-out: MIC",0.25 µg/mL
same,MIC,"E. coli J3272 Tet D; Escherichia coli, J3272TETD, 18 h",0.25 µg/mL
same,MIC,S. mariescens FPOR 8733; 18 h,8 µg/mL
same,MIC,"[4]; NEMC87210, 18 h, 18 hours at 35° C.",1 µg/mL
same,MIC,[5],32 µg/mL
same,MIC,S. aureus NEMC 8769,0.25 µg/mL
same,MIC,"S. aureus UBMS 88-4; Staphylococcus aureus, UBMS884, 18 hours at 35° C., read-out: MIC",0.25 µg/mL
same,MIC,"[6]; Staphylococcus aureus, UBMS885TETM, 18 h",0.25 µg/mL
same,MIC,"[7]; Staphylococcus aureus, UBMS887TETK, 18 h",2 µg/mL
same,MIC,"[8]; Staphylococcus aureus, UBMS901TETM, 18 h",0.25 µg/mL
same,MIC,"S. aureus UBMS 90-3; Staphylococcus aureus, UBMS903, 18 h",0.12 µg/mL
same,MIC,"[9]; Staphylococcus aureus, UBMS902TETM, 18 h",0.25 µg/mL
same,MIC,"S. aureus IVES 2943; Staphylococcus aureus, IVES2943, read-out: MIC",4 µg/mL
same,MIC,"S. aureus ROSE (MP); Staphylococcus aureus, 18 h",8 µg/mL
same,MIC,"S. aureus SMITH (MP); Staphylococcus aureus, 18 h",0.25 µg/mL
same,MIC,"S. aureus IVES 1 983; Staphylococcus aureus, IVES1983, read-out: MIC",4 µg/mL
same,MIC,"S. aureus ATCC 29213; Staphylococcus aureus, ATCC29213, 18 h",0.25 µg/mL
same,MIC,"[10]; Streptococcus pyogenes, AVHAH883, 18 h",2 µg/mL
same,MIC,"Enterococcus 12201; Enterococcus, 12201, 18 h",0.25 µg/mL
same,MIC,"E. faecalis ATCC 29212; ATCC29212, 18 hours at 35° C., read-out: MIC",0.12 µg/mL
"CN(C)CC(=O)Nc1c(Cl)cc2c(c1O)C(=O)C1=C(O)[C@]3(O)C(=O)C(C(N)=O)=C(O)[C@@H](N(C)C)C3CC1C2 (stereo partly drawn) [C, [4S-(4α,12aα)]-8-Chloro-4-(dimethylamino)-9-[[(dimethylamino)acetyl]amino]-1,4,4a,5,5a,6,11,12a-octahydro-3,10,12,12a-tetrahydroxy-1,11-dioxo-2-naphthacenecarboxamide]",MIC,E. coli UBMS 88-1 Tet B,1 µg/mL
same,MIC,[1],0.25 µg/mL
same,MIC,E. coli PRP1 Tet A,8 µg/mL
same,MIC,[2],1 µg/mL
same,MIC,"E. coli J3272 Tet C; E. coli J3272 Tet C, 18 hours at 35° C.",8 µg/mL
same,MIC,E. coli UBMS 89-1 Tet M,0.25 µg/mL
same,MIC,[3],1 µg/mL
same,MIC,E. coli J2175,1 µg/mL
same,MIC,E. coli BAJ9003 IMP MUT,0.12 µg/mL
same,MIC,E. coli UBMS 90-4 Tet M,0.5 µg/mL
same,MIC,E. coli UBMS 90-5 sens,1 µg/mL
same,MIC,E. coli #311 (MP),0.5 µg/mL
same,MIC,E. coli ATCC 25922; 18 hours at 35° C.,0.5 µg/mL
same,MIC,"E. coli J3272 Tet D; E. coli J3272 Tet D, 18 hours at 35° C.",0.5 µg/mL
same,MIC,S. mariescens FPOR 8733,8 µg/mL
same,MIC,"[4]; NEMC87210, 18 hours at 35° C., read-out: MIC",0.05 µg/mL
same,MIC,[5],> 32 µg/mL
same,MIC,S. aureus NEMC 8769,0.03 µg/mL
same,MIC,S. aureus UBMS 88-4; 18 hours at 35° C.,0.12 µg/mL
same,MIC,"[6]; S. aureus UBMS 88-5 Tet M, 18 hours at 35° C.",2 µg/mL
same,MIC,[7],0.25 µg/mL
same,MIC,[8],4 µg/mL
same,MIC,"S. aureus UBMS 90-3; S. aureus UBMS 90-3, 18 hours at 35° C.",0.12 µg/mL
same,MIC,[9],1 µg/mL
same,MIC,S. aureus IVES 2943,4 µg/mL
same,MIC,S. aureus ROSE (MP),1 µg/mL
same,MIC,S. aureus SMITH (MP),0.12 µg/mL
same,MIC,S. aureus IVES 1 983,4 µg/mL
same,MIC,S. aureus ATCC 29213,0.25 µg/mL
same,MIC,[10],0.5 µg/mL
same,MIC,Enterococcus 12201,8 µg/mL
same,MIC,"E. faecalis ATCC 29212; ATCC29212, 18 h, 18 hours at 35° C.",0.5 µg/mL
